Tested on: Hep G2 human hepatocellular carcinoma cell line
Assay: In vitro cell proliferation (MTT) assay, Hep G2
Format: cell-based
Details: not given
Method: (§1) The targeted compounds were tested for their in-vitro anti-cancer activity against three tumor cell lines (HCT116, Hep G2 and MCF-7). Doxorubicin was included in the experiments as a reference cytotoxic compound. Exponentially growing cells from different cancer cell lines were trypsinized, counted and seeded at the appropriate densities into 96-well microtiter plates. Cells then were incubated in a humidified atmosphere at 37 °C for 24 h. Then, cells were exposed to different concentrations of compounds for 72 h. Then the viability of treated cells was determined using MTT technique (described latter).
(§2) Three cancer cell lines including human colon carcinoma (HCT116), human breast adenocarcinoma (MCF-7) and human hepatocellular carcinoma (Hep G2), were purchased from American Type Cell Culture Collection (ATCC, Manassas, VA, USA) and grown on the appropriate growth medium Dulbecco’s modified Eagle’s medium (DMEM) or Roswell Park Memorial Institute medium (RPMI 1640) supplemented with […] of streptomycin, 100 units/mL of penicillin and 10% of heat-inactivated fetal bovine serum in a humidified, 5% (v/v) CO2 atmosphere at 37 °C [34]. Cytotoxicity assay by 3-[4,5-dimethylthiazole-2-yl]-2,5-diphenyltetrazolium bromide (MTT).
(§3) Exponentially growing cells from different cancer cell lines were trypsinized, counted and seeded at the appropriate densities (2000–1000 cells/0.33 cm^2 well) into 96-well microtiter plates. Cells then were incubated in a humidified atmosphere at 37 °C for 24 h. Then, cells were exposed to different concentrations of compounds (0.1, 10, 100, 1000 µM) for 72 h. Then the viability of treated cells was determined using MTT technique as follow. Media were removed; cells were incubated with 200 μL of 5% MTT solution/well (Sigma Aldrich, Darmstadt, Germany) and were allowed to metabolize the dye into a colored-insoluble formazan crystal for 2 h. The remaining MTT solution were discarded from the wells and the formazan crystals were dissolved in 200 µl/well acidified isopropanol for 30 min, covered with aluminum foil and with continuous shaking using a MaxQ 2000 plate shaker (Thermo Fisher Scientific Inc, Waltham, MA, USA) at room temperature. Absorbance were measured at 570 nm using a Stat Fax^R 4200 plate reader (Awareness Technology, Inc., Awareness Technology, FL, USA). The cell viability was expressed as percentage of control and the concentration that induces 50% of maximum inhibition of cell proliferation (IC50) were determined using Graph Pad Prism version 5 software (Graph Pad Software Inc, San Diego, CA, USA) (1,2).

Row | SMILES | anti-cancer activity against Hep G2 cell line (in words)
1 | Cc1nc2ccccc2nc1Nc1ccc(NC(=O)Nc2ccccc2)cc1 [Compound VIIIb, 1-(4-((3-Methylquinoxalin-2-yl)amino)phenyl)-3-phenylurea] | no significant inhibitory activity
2 | Cc1cccc(NC(=O)Nc2ccc(Nc3nc4ccccc4nc3C)cc2)c1 [Compound VIIId, 1-(4-((3-Methylquinoxalin-2-yl)amino)phenyl)-3-(m-tolyl)urea] | weak activity

Same assay, conditions: Homo sapiens, HepG2; MTT, 72 h exposure

Row | SMILES | IC50 [µM]
3 | Cc1nc2ccccc2nc1Nc1ccc(NC(=O)Nc2ccccc2)cc1 [Compound VIIIb, 1-(4-((3-Methylquinoxalin-2-yl)amino)phenyl)-3-phenylurea] | 98
4 | Cc1cccc(NC(=O)Nc2ccc(Nc3nc4ccccc4nc3C)cc2)c1 [Compound VIIId, 1-(4-((3-Methylquinoxalin-2-yl)amino)phenyl)-3-(m-tolyl)urea] | 36
5 | Cc1nc2ccccc2nc1Nc1ccc(NC(=O)c2ccc(Cl)cc2)cc1 [Compound VIIb, 4-Chloro-N-(4-((3-methylquinoxalin-2-yl)amino)phenyl)benzamide] | 115
6 | COc1cccc2c1C(=O)c1c(O)c3c(c(O)c1C2=O)C[C@@](O)(C(=O)CO)C[C@@H]3O[C@H]1C[C@H](N)[C@H](O)[C@H](C)O1 [Doxorubicin, reference compound] | 1.2
7 | Cc1ccc(S(=O)(=O)Nc2ccc(Nc3nc4ccccc4nc3C)cc2)cc1 [IXa, 4-Methyl-N-(4-((3-methylquinoxalin-2-yl)amino)phenyl) benzenesulphonamide] | 22.9
8 | Cc1nc2ccccc2nc1Nc1ccc(NS(=O)(=O)c2ccc([N+](=O)[O-])cc2)cc1 [IXb, N-(4-((3-Methylquinoxalin-2-yl)amino)phenyl)-4-nitrobenzenesulfonamide] | 24.5
9 | Cc1ccc(S(=O)(=O)Nc2ccc(Nc3nc4ccccc4nc3Cl)cc2)cc1 [XVIIIa, N-(4-((3-Chloroquinoxalin-2-yl)amino)phenyl)-4-methylbenzenesulfonamide] | 490
10 | O=[N+]([O-])c1ccc(S(=O)(=O)Nc2ccc(Nc3nc4ccccc4nc3Cl)cc2)cc1 [XVIIIb, N-(4-((3-Chloroquinoxalin-2-yl)amino)phenyl)-4-nitrobenzenesulfonamide] | > 1000

Same assay, conditions: relative to VIIIa

Row | SMILES | loss of activity towards Hep G2 on conversion of thiourea VIIIa into the urea [fold]
11 | Cc1nc2ccccc2nc1Nc1ccc(NC(=O)Nc2ccccc2)cc1 [Compound VIIIb, 1-(4-((3-Methylquinoxalin-2-yl)amino)phenyl)-3-phenylurea] | 10

Tested on: MCF-7 human breast adenocarcinoma cell line
Assay: In vitro cell proliferation (MTT) assay, MCF-7
Format: cell-based
Details: not given
Method: as §1, §2, §3

Row | SMILES | anti-cancer activity against MCF-7 cell line (in words)
12 | Cc1nc2ccccc2nc1Nc1ccc(NC(=O)Nc2ccccc2)cc1 [Compound VIIIb, 1-(4-((3-Methylquinoxalin-2-yl)amino)phenyl)-3-phenylurea] | moderate activity
13 | Cc1cccc(NC(=O)Nc2ccc(Nc3nc4ccccc4nc3C)cc2)c1 [Compound VIIId, 1-(4-((3-Methylquinoxalin-2-yl)amino)phenyl)-3-(m-tolyl)urea] | weak activity

Same assay, conditions: Homo sapiens, MCF7; MTT, 72 h exposure

Row | SMILES | IC50 [µM]
14 | Cc1nc2ccccc2nc1Nc1ccc(NC(=O)Nc2ccccc2)cc1 [Compound VIIIb, 1-(4-((3-Methylquinoxalin-2-yl)amino)phenyl)-3-phenylurea] | 13.5
15 | Cc1cccc(NC(=O)Nc2ccc(Nc3nc4ccccc4nc3C)cc2)c1 [Compound VIIId, 1-(4-((3-Methylquinoxalin-2-yl)amino)phenyl)-3-(m-tolyl)urea] | 30
16 | Cc1nc2ccccc2nc1Nc1ccc(NC(=O)c2ccc(Cl)cc2)cc1 [Compound VIIb, 4-Chloro-N-(4-((3-methylquinoxalin-2-yl)amino)phenyl)benzamide] | 138
17 | COc1cccc2c1C(=O)c1c(O)c3c(c(O)c1C2=O)C[C@@](O)(C(=O)CO)C[C@@H]3O[C@H]1C[C@H](N)[C@H](O)[C@H](C)O1 [Doxorubicin, reference compound] | 0.9
18 | Cc1ccc(S(=O)(=O)Nc2ccc(Nc3nc4ccccc4nc3C)cc2)cc1 [IXa, 4-Methyl-N-(4-((3-methylquinoxalin-2-yl)amino)phenyl) benzenesulphonamide] | 22.9
19 | Cc1nc2ccccc2nc1Nc1ccc(NS(=O)(=O)c2ccc([N+](=O)[O-])cc2)cc1 [IXb, N-(4-((3-Methylquinoxalin-2-yl)amino)phenyl)-4-nitrobenzenesulfonamide] | 10.2
20 | Cc1ccc(S(=O)(=O)Nc2ccc(Nc3nc4ccccc4nc3Cl)cc2)cc1 [XVIIIa, N-(4-((3-Chloroquinoxalin-2-yl)amino)phenyl)-4-methylbenzenesulfonamide] | 537
21 | O=[N+]([O-])c1ccc(S(=O)(=O)Nc2ccc(Nc3nc4ccccc4nc3Cl)cc2)cc1 [XVIIIb, N-(4-((3-Chloroquinoxalin-2-yl)amino)phenyl)-4-nitrobenzenesulfonamide] | 55

Tested on: not given
Assay: not given
Details: not given

Row | SMILES | melting point [°C]
22 | Cc1nc2ccccc2nc1Nc1ccc(NC(=O)Nc2ccccc2)cc1 [Compound VIIIb, 1-(4-((3-Methylquinoxalin-2-yl)amino)phenyl)-3-phenylurea] | > 300
23 | Cc1cccc(NC(=O)Nc2ccc(Nc3nc4ccccc4nc3C)cc2)c1 [Compound VIIId, 1-(4-((3-Methylquinoxalin-2-yl)amino)phenyl)-3-(m-tolyl)urea] | 280 to 281
24 | Cc1nc2ccccc2nc1Nc1ccc(NC(=O)c2ccc(Cl)cc2)cc1 [Compound VIIb, 4-Chloro-N-(4-((3-methylquinoxalin-2-yl)amino)phenyl)benzamide] | 234 to 235
25 | Cc1ccc(S(=O)(=O)Nc2ccc(Nc3nc4ccccc4nc3C)cc2)cc1 [IXa, 4-Methyl-N-(4-((3-methylquinoxalin-2-yl)amino)phenyl) benzenesulphonamide] | 198 to 199
26 | Cc1nc2ccccc2nc1Nc1ccc(NS(=O)(=O)c2ccc([N+](=O)[O-])cc2)cc1 [IXb, N-(4-((3-Methylquinoxalin-2-yl)amino)phenyl)-4-nitrobenzenesulfonamide] | 180 to 182
27 | Cc1ccc(S(=O)(=O)Nc2ccc(Nc3nc4ccccc4nc3Cl)cc2)cc1 [XVIIIa, N-(4-((3-Chloroquinoxalin-2-yl)amino)phenyl)-4-methylbenzenesulfonamide] | 250 to 252
28 | O=[N+]([O-])c1ccc(S(=O)(=O)Nc2ccc(Nc3nc4ccccc4nc3Cl)cc2)cc1 [XVIIIb, N-(4-((3-Chloroquinoxalin-2-yl)amino)phenyl)-4-nitrobenzenesulfonamide] | > 300

Tested on: HCT116 human colon carcinoma cell line
Assay: In vitro cell proliferation (MTT) assay, HCT116
Format: cell-based
Details: not given
Method: as §1, §2, §3

Row | SMILES | anti-cancer activity against HCT116 cell line (in words)
29 | Cc1nc2ccccc2nc1Nc1ccc(NC(=O)Nc2ccccc2)cc1 [Compound VIIIb, 1-(4-((3-Methylquinoxalin-2-yl)amino)phenyl)-3-phenylurea] | weak activity
30 | Cc1cccc(NC(=O)Nc2ccc(Nc3nc4ccccc4nc3C)cc2)c1 [Compound VIIId, 1-(4-((3-Methylquinoxalin-2-yl)amino)phenyl)-3-(m-tolyl)urea] | moderate anti-cancer activity
31 | Cc1nc2ccccc2nc1Nc1ccc(NC(=O)c2ccc(Cl)cc2)cc1 [Compound VIIb, 4-Chloro-N-(4-((3-methylquinoxalin-2-yl)amino)phenyl)benzamide] | weak activity

Same assay, conditions: Homo sapiens, HCT-116; MTT, 72 h exposure

Row | SMILES | IC50 [µM]
32 | Cc1nc2ccccc2nc1Nc1ccc(NC(=O)Nc2ccccc2)cc1 [Compound VIIIb, 1-(4-((3-Methylquinoxalin-2-yl)amino)phenyl)-3-phenylurea] | 38
33 | Cc1cccc(NC(=O)Nc2ccc(Nc3nc4ccccc4nc3C)cc2)c1 [Compound VIIId, 1-(4-((3-Methylquinoxalin-2-yl)amino)phenyl)-3-(m-tolyl)urea] | 11
34 | Cc1nc2ccccc2nc1Nc1ccc(NC(=O)c2ccc(Cl)cc2)cc1 [Compound VIIb, 4-Chloro-N-(4-((3-methylquinoxalin-2-yl)amino)phenyl)benzamide] | 27.5
35 | COc1cccc2c1C(=O)c1c(O)c3c(c(O)c1C2=O)C[C@@](O)(C(=O)CO)C[C@@H]3O[C@H]1C[C@H](N)[C@H](O)[C@H](C)O1 [Doxorubicin, reference compound] | 0.62
36 | Cc1ccc(S(=O)(=O)Nc2ccc(Nc3nc4ccccc4nc3C)cc2)cc1 [IXa, 4-Methyl-N-(4-((3-methylquinoxalin-2-yl)amino)phenyl) benzenesulphonamide] | 21.9
37 | Cc1nc2ccccc2nc1Nc1ccc(NS(=O)(=O)c2ccc([N+](=O)[O-])cc2)cc1 [IXb, N-(4-((3-Methylquinoxalin-2-yl)amino)phenyl)-4-nitrobenzenesulfonamide] | 12
38 | Cc1ccc(S(=O)(=O)Nc2ccc(Nc3nc4ccccc4nc3Cl)cc2)cc1 [XVIIIa, N-(4-((3-Chloroquinoxalin-2-yl)amino)phenyl)-4-methylbenzenesulfonamide] | 302
39 | O=[N+]([O-])c1ccc(S(=O)(=O)Nc2ccc(Nc3nc4ccccc4nc3Cl)cc2)cc1 [XVIIIb, N-(4-((3-Chloroquinoxalin-2-yl)amino)phenyl)-4-nitrobenzenesulfonamide] | > 1000

Target: T1, VEGFR-2 (Homo sapiens, UniProt P35968)
T1 construct: purchased Bio Science Corporation (BPS), San Diego, CA, USA
T1 sequence (P35968 20-1356): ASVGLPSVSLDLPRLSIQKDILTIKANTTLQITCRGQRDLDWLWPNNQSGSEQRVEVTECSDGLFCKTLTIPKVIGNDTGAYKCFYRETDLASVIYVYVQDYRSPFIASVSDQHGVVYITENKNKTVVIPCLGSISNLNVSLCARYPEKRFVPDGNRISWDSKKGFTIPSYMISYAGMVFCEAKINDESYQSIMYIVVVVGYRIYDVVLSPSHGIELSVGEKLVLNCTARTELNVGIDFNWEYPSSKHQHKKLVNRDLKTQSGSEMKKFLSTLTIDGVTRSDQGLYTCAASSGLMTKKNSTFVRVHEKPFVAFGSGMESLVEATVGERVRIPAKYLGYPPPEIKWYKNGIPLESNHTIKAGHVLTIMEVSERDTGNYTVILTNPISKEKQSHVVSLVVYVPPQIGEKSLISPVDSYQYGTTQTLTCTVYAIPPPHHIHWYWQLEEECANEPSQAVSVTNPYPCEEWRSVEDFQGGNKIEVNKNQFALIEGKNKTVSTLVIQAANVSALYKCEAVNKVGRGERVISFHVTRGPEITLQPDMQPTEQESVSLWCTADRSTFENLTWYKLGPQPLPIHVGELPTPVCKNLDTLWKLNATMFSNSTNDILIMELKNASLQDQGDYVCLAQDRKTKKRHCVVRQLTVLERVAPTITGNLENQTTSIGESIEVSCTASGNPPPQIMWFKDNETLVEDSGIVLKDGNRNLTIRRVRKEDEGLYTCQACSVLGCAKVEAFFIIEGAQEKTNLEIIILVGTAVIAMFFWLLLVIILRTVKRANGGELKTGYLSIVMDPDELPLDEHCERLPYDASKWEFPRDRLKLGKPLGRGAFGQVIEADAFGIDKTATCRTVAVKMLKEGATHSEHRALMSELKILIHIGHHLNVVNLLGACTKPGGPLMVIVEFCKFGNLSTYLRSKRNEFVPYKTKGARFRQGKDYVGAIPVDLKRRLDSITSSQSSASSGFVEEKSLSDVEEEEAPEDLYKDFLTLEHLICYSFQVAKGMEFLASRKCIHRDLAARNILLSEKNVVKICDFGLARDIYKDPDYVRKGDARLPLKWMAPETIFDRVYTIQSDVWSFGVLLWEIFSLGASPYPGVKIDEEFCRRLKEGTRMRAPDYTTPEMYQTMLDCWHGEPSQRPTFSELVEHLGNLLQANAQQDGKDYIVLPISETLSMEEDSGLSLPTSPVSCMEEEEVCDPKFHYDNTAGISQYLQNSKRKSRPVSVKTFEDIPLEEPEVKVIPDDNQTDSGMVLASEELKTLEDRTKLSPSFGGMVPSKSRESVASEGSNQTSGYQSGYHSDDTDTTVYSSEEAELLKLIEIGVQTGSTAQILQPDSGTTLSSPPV
Assay: In vitro VEGFR-2 inhibition assay (Kinase-Glo Plus luminescence)
Format: biochemical
Details: single concentration of 10 µM; read-out: % of VEGFR-2 Inhibition
Method: In an attempt to investigate the possible mechanism of action of the synthesized compounds based on structural similarity with sorafenib, all of them were tested for VEGFR-2 inhibitory activity at Bio Science Corporation (BPS, San Diego, CA, USA). The assay was performed using the Kinase-Glo Plus luminescence kinase assay kit (Promega, San Diego, CA, USA). It measures kinase activity by quantitating the amount of ATP remaining in solution following a kinase reaction. […].
The in-vitro enzyme inhibition determination for the synthesized compounds was carried out at Bio Science Corporation (BPS)-San Diego, CA, USA. The assay was performed using Kinase-Glo Plus luminescence kinase assay kit (Promega), where the kinase activity was measured by quantitating the amount of ATP remaining in solution following a kinase reaction. The luminescent signal from the assay is correlated with the amount of ATP present and is inversely correlated with the amount of kinase activity. Our compounds were diluted with 10% DMSO and 5 µL of the dilution was added to a 50 µL reaction so that the final concentration of DMSO is 1% in all of reactions. All of the enzymatic reactions were conducted at 30 °C for 40 min. The 50 µL reaction mixture contains 40 mM Tris, pH 7.4, 10 mM MgCl2, 0.1 mg/mL BSA, 1 mM DTT, 10 µM ATP, Kinase substrate and the enzyme. After the enzymatic reaction, 50 µL of Kinase-Glo Plus Luminescence kinase assay solution (Promega San Diego, CA, USA) was added to each reaction and incubate the plate for 5 min at room temperature. Luminescence signal was measured using a BioTek Synergy 2 microplate reader.
Kinase activity assays were performed in duplicate at each concentration. The luminescence data were analyzed using the computer software, Graphpad Prism. The difference between luminescence intensities in the absence of Kinase (Lut) and in the presence of Kinase (Luc) was defined as 100% activity (Lut − Luc). Using luminescence signal (Lu) in the presence of the compound, % activity was calculated as:% activity = {(Lut − Lu)(Lut − Luc)} × 100% where Lu = the luminescence intensity in the presence of the compound.

Row | SMILES | inhibition at 10 µM [%]
40 | Cc1nc2ccccc2nc1Nc1ccc(NC(=O)Nc2ccccc2)cc1 [Compound VIIIb, 1-(4-((3-Methylquinoxalin-2-yl)amino)phenyl)-3-phenylurea] | 4
41 | Cc1cccc(NC(=O)Nc2ccc(Nc3nc4ccccc4nc3C)cc2)c1 [Compound VIIId, 1-(4-((3-Methylquinoxalin-2-yl)amino)phenyl)-3-(m-tolyl)urea] | 5
42 | Cc1nc2ccccc2nc1Nc1ccc(NC(=O)c2ccc(Cl)cc2)cc1 [Compound VIIb, 4-Chloro-N-(4-((3-methylquinoxalin-2-yl)amino)phenyl)benzamide] | 4
43 | Cc1ccc(S(=O)(=O)Nc2ccc(Nc3nc4ccccc4nc3C)cc2)cc1 [IXa, 4-Methyl-N-(4-((3-methylquinoxalin-2-yl)amino)phenyl) benzenesulphonamide] | 3
44 | Cc1nc2ccccc2nc1Nc1ccc(NS(=O)(=O)c2ccc([N+](=O)[O-])cc2)cc1 [IXb, N-(4-((3-Methylquinoxalin-2-yl)amino)phenyl)-4-nitrobenzenesulfonamide] | 3
45 | Cc1ccc(S(=O)(=O)Nc2ccc(Nc3nc4ccccc4nc3Cl)cc2)cc1 [XVIIIa, N-(4-((3-Chloroquinoxalin-2-yl)amino)phenyl)-4-methylbenzenesulfonamide] | 4
46 | O=[N+]([O-])c1ccc(S(=O)(=O)Nc2ccc(Nc3nc4ccccc4nc3Cl)cc2)cc1 [XVIIIb, N-(4-((3-Chloroquinoxalin-2-yl)amino)phenyl)-4-nitrobenzenesulfonamide] | 9
